The values below are quoted from earlier work in patent publication US7994325B2, “CGRP receptor antagonists” (Merck Sharp & Dohme Corp., priority 2005, dated 2011).

Ends that are not written are not given here.

In data set [1] the test system is CGRP receptors. As to conditions: marmoset (Doods et al. 2000).
For data set [2], the system named is CGRP receptors. The note with it: intravenously administered (Olesen et al. 2004).
Data set [3] deals with CGRP receptors. The note with it: rats, prior administration (Williamson et al. 1997).
The test system of data set [4] is CGRP receptors. As to conditions: rat (Escott et al. 1995).

With `NCCCC[C@H](NC(=O)[C@@H](Cc1cc(Br)c(O)c(Br)c1)NC(=O)N1CCC(N2Cc3ccccc3NC2=O)CC1)C(=O)N1CCN(c2ccncc2)CC1` [BIBN4096BS], the “effect on increase in facial blood flow” value in the data set on CGRP receptors [1] is given as “blocked”. Also, the “clinical efficacy and safety in migraine” value with CGRP receptors [2] was “safe and effective acute treatment for migraine”.
Regarding “CGRP(8-37): "a fragment of CGRP that lacks seven N-terminal amino acid residues, is a selective antagonist of CGRP1"; "a peptide CGRP antagonist" (VTHRLAGLLSRSGGVVKNNFVPTNVGSKAF; ends and bridges not checked; UniProt P06881 90-119, looked up, fragment)”, in the data set with CGRP receptors [3], the “effect on increase in diameter of the middle meningeal artery” value was “blocked”. The “effect on increased facial blood flow” value in the data set on CGRP receptors [4] is listed as “inhibited”.
